{"source": "BigSolDB 2.1"}
{"smiles": "Cc1ccc2ccccc2c1", "values": [{"measurement": "solubility (mole fraction)", "setting": "in 1,4-dioxane, 278.25 K", "value": 0.468}, {"measurement": "solubility (mole fraction)", "setting": "in 1,4-dioxane, 283.25 K", "value": 0.508}, {"measurement": "solubility (mole fraction)", "setting": "in 1,4-dioxane, 288.35 K", "value": 0.575}, {"measurement": "solubility (mole fraction)", "setting": "in 1,4-dioxane, 293.25 K", "value": 0.65}, {"measurement": "solubility (mole fraction)", "setting": "in 1,4-dioxane, 298.35 K", "value": 0.726}, {"measurement": "solubility (mole fraction)", "setting": "in 1,4-dioxane, 303.25 K", "value": 0.817}, {"measurement": "solubility (mole fraction)", "setting": "in acetone, 278.45 K", "value": 0.218}, {"measurement": "solubility (mole fraction)", "setting": "in acetone, 283.25 K", "value": 0.286}, {"measurement": "solubility (mole fraction)", "setting": "in acetone, 288.35 K", "value": 0.368}, {"measurement": "solubility (mole fraction)", "setting": "in acetone, 293.25 K", "value": 0.484}, {"measurement": "solubility (mole fraction)", "setting": "in acetone, 298.35 K", "value": 0.588}, {"measurement": "solubility (mole fraction)", "setting": "in acetone, 303.25 K", "value": 0.741}, {"measurement": "solubility (mole fraction)", "setting": "in ethanol, 278.25 K", "value": 0.0389}, {"measurement": "solubility (mole fraction)", "setting": "in ethanol, 283.25 K", "value": 0.058}, {"measurement": "solubility (mole fraction)", "setting": "in ethanol, 288.35 K", "value": 0.109}, {"measurement": "solubility (mole fraction)", "setting": "in ethanol, 293.25 K", "value": 0.148}, {"measurement": "solubility (mole fraction)", "setting": "in ethanol, 298.35 K", "value": 0.287}, {"measurement": "solubility (mole fraction)", "setting": "in ethanol, 303.25 K", "value": 0.458}, {"measurement": "solubility (mole fraction)", "setting": "in ethylene glycol, 278.25 K", "value": 0.00742}, {"measurement": "solubility (mole fraction)", "setting": "in ethylene glycol, 283.25 K", "value": 0.00811}, {"measurement": "solubility (mole fraction)", "setting": "in ethylene glycol, 288.35 K", "value": 0.00864}, {"measurement": "solubility (mole fraction)", "setting": "in ethylene glycol, 293.25 K", "value": 0.00963}, {"measurement": "solubility (mole fraction)", "setting": "in ethylene glycol, 298.35 K", "value": 0.0102}, {"measurement": "solubility (mole fraction)", "setting": "in ethylene glycol, 303.25 K", "value": 0.0115}, {"measurement": "solubility (mole fraction)", "setting": "in isopropanol, 278.25 K", "value": 0.0276}, {"measurement": "solubility (mole fraction)", "setting": "in isopropanol, 283.25 K", "value": 0.0508}, {"measurement": "solubility (mole fraction)", "setting": "in isopropanol, 288.35 K", "value": 0.077}, {"measurement": "solubility (mole fraction)", "setting": "in isopropanol, 293.25 K", "value": 0.133}, {"measurement": "solubility (mole fraction)", "setting": "in isopropanol, 298.35 K", "value": 0.233}, {"measurement": "solubility (mole fraction)", "setting": "in isopropanol, 303.25 K", "value": 0.43}, {"measurement": "solubility (mole fraction)", "setting": "in n-butanol, 278.25 K", "value": 0.0596}, {"measurement": "solubility (mole fraction)", "setting": "in n-butanol, 283.25 K", "value": 0.0794}, {"measurement": "solubility (mole fraction)", "setting": "in n-butanol, 288.35 K", "value": 0.13}, {"measurement": "solubility (mole fraction)", "setting": "in n-butanol, 293.25 K", "value": 0.223}, {"measurement": "solubility (mole fraction)", "setting": "in n-butanol, 298.35 K", "value": 0.37}, {"measurement": "solubility (mole fraction)", "setting": "in n-butanol, 303.25 K", "value": 0.68}, {"measurement": "solubility (mole fraction)", "setting": "in n-butyl acetate, 278.15 K", "value": 0.621}, {"measurement": "solubility (mole fraction)", "setting": "in n-butyl acetate, 283.15 K", "value": 0.673}, {"measurement": "solubility (mole fraction)", "setting": "in n-butyl acetate, 288.15 K", "value": 0.729}, {"measurement": "solubility (mole fraction)", "setting": "in n-butyl acetate, 293.15 K", "value": 0.787}, {"measurement": "solubility (mole fraction)", "setting": "in n-butyl acetate, 298.15 K", "value": 0.849}, {"measurement": "solubility (mole fraction)", "setting": "in n-butyl acetate, 303.15 K", "value": 0.951}, {"measurement": "solubility (mole fraction)", "setting": "in n-heptane, 278.15 K", "value": 0.502}, {"measurement": "solubility (mole fraction)", "setting": "in n-heptane, 283.15 K", "value": 0.579}, {"measurement": "solubility (mole fraction)", "setting": "in n-heptane, 288.15 K", "value": 0.65}, {"measurement": "solubility (mole fraction)", "setting": "in n-heptane, 293.15 K", "value": 0.726}, {"measurement": "solubility (mole fraction)", "setting": "in n-heptane, 298.15 K", "value": 0.831}, {"measurement": "solubility (mole fraction)", "setting": "in n-heptane, 303.15 K", "value": 0.906}, {"measurement": "solubility (mole fraction)", "setting": "in n-hexane, 278.95 K", "value": 0.283}, {"measurement": "solubility (mole fraction)", "setting": "in n-hexane, 283.25 K", "value": 0.348}, {"measurement": "solubility (mole fraction)", "setting": "in n-hexane, 288.35 K", "value": 0.443}, {"measurement": "solubility (mole fraction)", "setting": "in n-hexane, 293.25 K", "value": 0.55}, {"measurement": "solubility (mole fraction)", "setting": "in n-hexane, 298.35 K", "value": 0.643}, {"measurement": "solubility (mole fraction)", "setting": "in n-hexane, 303.25 K", "value": 0.811}]}
